Laboratory results: article PMC8744746 (International Journal of Molecular Sciences, 2021)
Values joined by “and” are separate entries in the source; they are usually repeats but may differ in a detail not shown here. Equal values may be shown once. “Also recorded” adds a separate entry of the source. Read-outs that look alike come from different tables or passages of the source.

Legend:
[1] = system: α-tubulin in T. gondii tachyzoites; assay: Immunoblot quantification of α-tubulin protein in tachyzoites; format: cell-based, Toxoplasma gondii; details: clemastine-treated tachyzoites (8 μM in Figure 4D); DMSO control 0.022
Text: Parasite equivalents and known concentrations of porcine tubulin standards were resolved by SDS-PAGE for subsequent immunoblot analysis using a broadly cross-reacting α-tubulin monoclonal antibody that recognizes both vertebrate and Toxoplasma tubulin. Band intensity was quantified with ImageJ, and the porcine samples were used to create a standard curve to determine α-tubulin concentration in Toxoplasma samples normalized to parasite equivalents.
The samples were resolved on a 10% SDS-polyacrylamide gel (Bio-Rad) and blotted to nitrocellulose for immunoblot analysis. Blots were probed with a mouse anti-α-tubulin antibody (Sigma T9026; 1:5000) and detected with an IgG anti-mouse secondary antibody conjugated to HRP (Promega, Madison, WI, USA: W4021, 1:10,000). Samples were imaged using a Nikon D700 fitted with a 55 mm f/1.4 Nikkor auto-focus lens and intervening 12 mm Kenko auto-focus extension tube [46]. Exposure times were controlled with a Satechi TRC-B remote shutter control. Band intensity was quantified using ImageJ.

RH-GFP parasites = format: cell-based, Toxoplasma gondii; details: drugs at their EC50 concentrations, clemastine +/− pretreatment
Experimental: The red-green invasion assay using GFP-expressing tachyzoites was adapted from the original protocol. HFF cells were grown to confluency on coverslips in 6-well dishes. RH-GFP parasites were harvested from infected host cells by syringe passage through a 27-gauge needle. Tachyzoites were allowed to adhere to host cells for 20 min at 37 °C in a high-potassium “Endo” buffer. The buffer was replaced with warm invasion medium (DMEM + various drug conditions). Parasite invasion occurred under control or drug-treated conditions for 3 min (short invasion time) or 30 min (long invasion time) at 37 °C in a humidified 5% CO2 incubator. After invasion, samples were washed with PBS, fixed with formyl saline without subsequent permeabilization, stained with mouse anti-SAG1 antibody (Invitrogen, Waltham, MA, USA: D61S, 1:1000), and detected with a goat anti-mouse secondary antibody conjugated to Alexa Fluor 594 (Invitrogen A11005, 1:1000). Extracellular, invading, and intracellular parasites were scored from 10 random microscope fields. Invasion was calculated by dividing the number of intracellular parasites by the total number of parasites counted.

RH-GFP T. gondii = details: GFP-expressing parasites per vacuole, tracked up to 36 h
Text: To live image replicating parasites, we used a GFP-expressing Toxoplasma line [29] for invasion assays and replication assays. […] Next, we assessed the effects of the drugs on replication. By adding drug to infected cells after initiating parasite invasion, this assay measures replication independent of any effects on invasion. This methodology may also reveal details induced by drug treatment that are not resolved by the plaque assay, such as changes in parasite shape or acute replication delays. We enumerated the number of GFP-expressing parasites in individual vacuoles at 12-hour intervals over one complete lytic cycle.
HFF cells were grown to confluency in 35 mm coverslip dishes (MatTek, Ashland MA, USA). RH-GFP T. gondii [29] were harvested by filtering freshly lysed parasites. Parasites were diluted 4-fold in D10+ media. After 30 min of invasion at 37 °C, the cell monolayer was washed with PBS to remove extracellular parasites. D10+ media alone, D10+ with DMSO, or drug in DMSO was added to the dishes. Actively growing parasites in fibroblasts were imaged every 12 h over a 48-hour period using a Zeiss Axiovert 200 M and an Axiovision camera to collect 10 random fields of view for each condition. Parasite replication states were manually quantified and tallied to enumerate singlets, doublets, quadruplets, and larger rosettes.

HFF cell microtubules = assay: Tubulin immunofluorescence and SFEX quantification of vertebrate microtubules; format: cell-based, human; details: at or above the EC50 for oryzalin, clemastine, astemizole; versus vehicle control
Experimental: Vertebrate sensitivity is assessed using tubulin immunofluorescence to visualize microtubule networks after drug treatment of uninfected human HFF cells in culture (Figure 3A). To quantify microtubule polymer density between treatments, we used the SFEX program [19] to segment and enumerate filaments in a fixed-size region of interest. Treatment with the vertebrate microtubule-depolymerizing colchicine-site ligand combretastatin A4 [32] was used as a positive control to ensure that the SFEX parameters captured partial, as well as total, loss of cytoplasmic microtubules.
HFF cells were seeded subconfluently onto sterile 12-mm circular glass coverslips in 6-well dishes. Cells were grown to semiconfluency (3–4 days). Cultures were exposed to DMSO (vehicle control) and drugs of interest for 60 min at 37 °C. These samples were fixed and permeabilized with ice-cold methanol for 3–5 min and blocked in 10% BSA in Ca^2+, Mg^2+-free PBS at room temperature for 30 min or overnight at 4 °C. […] The open-source software Stress Fiber Extractor 1.0 [19] was used to quantify assembled tubulin (microtubules) present in HFF-cell immunofluorescence images within MATLAB R2015a, using the “Stress Fiber Network” analysis feature. […] Quantitative analysis of the segmented filaments was performed with the Stress Fiber Extractor, with export of data into Excel (Microsoft, Redmond, WA, USA). […]

[2] = system: Toxoplasma tachyzoite subpellicular microtubules; assay: Subpellicular microtubule length in deoxycholate-extracted tachyzoites (ImageJ); format: cell-based, Toxoplasma gondii; details: drug-treated tachyzoites versus vehicle controls
Experimental: In parallel, we assessed the effect of these candidate tubulin-targeting agents on parasite microtubules, also via tubulin immunofluorescence. Because tachyzoite subpellicular microtubules are unusually resistant to detergent extraction due to the association of SPM1 and other stabilizing luminal proteins, these structures can be specifically isolated for analysis. Vehicle- and drug-treated parasites were incubated with deoxycholate, and the extracted subpellicular microtubule arrays were detected with tubulin immunofluorescence (Figure 4A). Images of parasite microtubules were measured using ImageJ.
To measure the length distribution of Toxoplasma tachyzoite subpellicular microtubules in control and treated parasites, we isolated subpellicular microtubule complexes by deoxycholate extraction of freshly lysed tachyzoites. Briefly, RH parasites were treated with DMSO or candidate drugs in culture for 2 days. Following lysis of host cells, extracellular parasites were centrifuged at 1000× g for 20 min at 4 °C and then resuspended in 1 mL of PBS. Parasites were settled onto poly-l-lysine (Sigma)-coated coverslips for 15 min at room temperature. Coverslips were incubated with 10 mg/mL deoxycholate (DOC) in phosphate-buffered saline (PBS) for 10 min to extract the subpellicular microtubule cytoskeleton. Samples were fixed in 3.7% formyl saline (Sigma) at room temperature for 10–15 min, followed by immunostaining for tubulin, as described above. Extracted subpellicular microtubules in immunofluorescence images were measured using ImageJ.

in vitro = details: human
Experimental: Because replicating cells may be more vulnerable than confluent monolayers, we evaluated survival of both subconfluent (dividing) and confluent (contact-inhibited) HFF cultures after 72 h of exposure to increasing drug concentrations (Supplemental Figure S4). […] Using this information, we calculated the in vitro therapeutic index for these drugs, which is the ratio of the CC50 to the EC50.
For subconfluent monolayers, approximately 5 × 10^4 HFF cells were plated into each well of a 24-well dish and exposed to D10+ media alone or D10+ with DMSO or drug for 3 days. The plates were processed with the In Vitro Toxicology Assay Kit, MTT based (Sigma Aldrich, TOX1), and A570 was measured in a SpectraMax I3X plate reader. Exported data were analyzed using Microsoft Excel. For confluent monolayers, approximately 5 × 10^4 HFF cells were plated into each well of a 24-well dish and grown in D10+ media alone. Once the cells were confluent, they were gently rinsed with PBS, and D10+ with DMSO or drug was added to each well. The plates were processed as above.

[3] = system: Toxoplasma RH strain tachyzoites; assay: microbe, parasite or virus in culture; details: 168 h, read-out: EC50, Toxoplasma RH Strain, plaque area relative to control after 7 days in HFF monolayers
Experimental: (§1) To assess this, we gauged the therapeutic index by measuring compound EC50 for Toxoplasma tachyzoites grown in vertebrate host cells versus the CC50 for uninfected human foreskin fibroblast (HFF) cells. […] After 1 week of parasite growth, we visualized lytic destruction of crystal violet-stained host cells to reveal macroscopic plaques in the monolayer (Figure 2B). Greyscale images of individual wells were analyzed with the open-source program ImageJ [18] using the “threshold” functionality to differentiate between cells (dark gray) and plaques (white). The program calculates plaque number, average size, and percent total area within the field. The EC50 value is determined by graphing the relationship between compound concentrations and percent total plaque area relative to control cultures. […] HFF cells were grown to confluency in 6-well dishes and infected with 300 tachyzoites/well. Individual wells were treated with varying concentrations of drug, and the plates were left undisturbed for 7 days at 37 °C in a humidified 5% CO2 incubator. […] Greyscale photographic images of the plates were analyzed in ImageJ (NIH, Bethesda, MD, USA) using the “threshold” functionality. Plaque number, average size and percent total area were calculated by the program. […]

[4] = system: Toxoplasma RH strain tachyzoites; details: read-out: EC50, Toxoplasma RH Strain; plaque area relative to control after 7 days in HFF monolayers
Experimental: as §1

Toxoplasma = system: Toxoplasma; set-up: method as in PMID 28609444; details: cited from earlier work

Molecule	Effect on tachyzoite invasion (RH-GFP parasites)	Effect on tachyzoite replication (RH-GFP T. gondii)	Effect on vertebrate (HFF) microtubules, in words (HFF cell microtubules)	Effect on Toxoplasma subpellicular microtubule length, in words [2]	also measured
CN1CCC[C@@H]1CCO[C@](C)(c1ccccc1)c1ccc(Cl)cc1 [Clemastine]	does not affect invasion	No delays in replication are detected at 36 hours; also recorded: did not detect overt slowing of replication	–	–	α-tubulin (pg)/tachyzoite [1]: 0.02 pg/tachyzoite and ~ 0.02 pg/tachyzoite
COc1ccc(CCN2CCC(Nc3nc4ccccc4n3Cc3ccc(F)cc3)CC2)cc1 [Astemizole]	does not affect invasion	No delays in replication are detected at 36 hours; also recorded: did not detect overt slowing of replication	do not significantly differ from the vehicle control	smaller but significant decreases in filament length; also recorded: small but significant decrease in microtubule length	CC50 at 72 h (in vitro; HFF CC50 confluent): 18000 nM; CC50 at 72 h (in vitro; HFF CC50 subconfluent): 8830 nM; EC50 [3]: ~2000 nM; EC50 [4]: 2070 nM
Parabulin	–	–	–	significant reduction in microtubule length; also recorded: significant microtubule shortening relative to control samples	–
COc1ccc(/C=C\c2cc(OC)c(OC)c(OC)c2)cc1O [Combretastatin A4, combretastatin A4]	–	–	dose-dependent microtubule disassembly	–	–
CCc1nc(N)nc(N)c1-c1ccc(Cl)cc1 [Pyrimethamine]	–	–	–	does not reduce microtubule length	Effect on Toxoplasma subpellicular microtubule length, in words ([2]; listed as pyrimethamine): not different to that of the vehicle controls
OCCOCCN1CCN(C(c2ccccc2)c2ccc(Cl)cc2)CC1 (stereo not shown) [hydroxyzine]	–	–	–	–	EC50 (Toxoplasma): 1000 nM
